Like-named read-outs stand apart in the source and are kept apart here.
Assays:
serum proteins [1] = details: mice; cited from earlier work
serum proteins [2] = details: rats; cited from earlier work
BSA Site I / Site II [3] = target: T1, BSA Site I / Site II (Bos taurus, UniProt P02769); assay: Site marker studies with phenylbutazone (Site I) and ibuprofen (Site II); format: binding, bovine
T1 construct: purchased Sigma-Aldrich (St. Louis, MO, USA)

serum proteins [4] = details: humans; cited from earlier work
[5] = target: bovine serum albumin (BSA) (Bos taurus, UniProt P02769); assay: Fluorescence quenching of BSA by ligand (binary and ternary systems; Stern Volmer, double log and van't Hoff analysis); format: binding
bovine serum albumin (BSA), sequence (P02769 25-607): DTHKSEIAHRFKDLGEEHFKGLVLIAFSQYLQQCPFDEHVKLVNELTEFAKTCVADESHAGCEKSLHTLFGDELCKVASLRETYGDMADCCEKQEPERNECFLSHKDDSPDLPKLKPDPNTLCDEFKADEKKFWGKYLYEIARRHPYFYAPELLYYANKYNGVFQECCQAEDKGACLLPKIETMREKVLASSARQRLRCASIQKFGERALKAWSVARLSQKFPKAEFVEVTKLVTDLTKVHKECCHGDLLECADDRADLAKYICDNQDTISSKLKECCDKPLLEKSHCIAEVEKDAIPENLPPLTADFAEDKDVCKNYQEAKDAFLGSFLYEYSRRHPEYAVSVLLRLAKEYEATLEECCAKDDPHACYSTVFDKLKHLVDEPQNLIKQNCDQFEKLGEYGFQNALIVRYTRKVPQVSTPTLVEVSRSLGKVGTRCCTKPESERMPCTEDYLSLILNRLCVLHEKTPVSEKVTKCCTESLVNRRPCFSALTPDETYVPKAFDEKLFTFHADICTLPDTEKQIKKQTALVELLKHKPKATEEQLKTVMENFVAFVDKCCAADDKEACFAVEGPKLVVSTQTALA
Text: The spectrofluorometer FP-8200 (JASCO, Hachioji, Tokyo, Japan) was used to measure the fluorescence spectra. […] The inner filter effects were corrected for the reabsorption of emitted light using the equation [35]: Fcor=Fobs×e^(Aex+Aem)/2
Fcor and Fobs are the corrected and observed fluorescence in the above equation, respectively, and Aex and Aem are excitation and emission wavelengths absorbance values, respectively.
The fluorescence spectra for the protein BSA for the binary and the ternary system were recorded at 280 nm (excitation wavelength) and an emission wavelength of 300–500 nm (Figure 1a–c). […] (1) kq=Ksv/τ0 where F0 is BSA’s fluorescence intensity, and F is BSA’s fluorescence intensity in the presence of quencher. Stern Volmer constant is given as Ksv, and (Q) is quencher concentration. The kq biomolecular quenching constant and τ0 the lifetime of the fluorophore in the absence of quencher and is valued at 10^−8 s for biopolymers.
The binding constants and binding stoichiometry are were determined using a double logarithmic regression plot derived from the equation: log(F0−F)/F=log Kb+n log[Q] .

BSA Site I / Site II [6] = target: T1, BSA Site I / Site II; design: method as in PMID 28513070, PMID 34946608; details: cited from earlier work

T1 sequence (P02769 25-607): as above

SMILES | binding to serum proteins (serum proteins [1]) | binding to serum proteins (serum proteins [2]) | influence of phenylbutazone on quenching behavior and binding constant of BSA-ERL (BSA Site I / Site II [3]; Site I marker phenylbutazone) | binding constants of BSA-ERL in the presence and absence of ibuprofen (BSA Site I / Site II [3]; Site II marker ibuprofen) | binding site on BSA (BSA Site I / Site II [3]; site markers phenylbutazone and ibuprofen) | binding to serum proteins (serum proteins [4]) | bimolecular quenching constant kq ([5]; binary system, 298 K, kq = Ksv/τ0, τ0 10^−8 s) | Stern Volmer constant Ksv ± SD ([5]; binary system, BSA 1.5 μM, 298 K) | further reduction of fluorescence intensity of the BSA-ERL system by presence of QUR ([5]; difference ternary vs binary system) | binding site on BSA (BSA Site I / Site II [6])
C#Cc1cccc(Nc2ncnc3cc(OCCOC)c(OCCOC)cc23)c1 [ERL, Erlotinib] | 95% | 92% | strongly influenced | similar | Site I | 92% |  |  |  | 
O=c1c(O)c(-c2ccc(O)c(O)c2)oc2cc(O)cc(O)c12 [QUR, Quercetin] |  |  |  |  |  |  | 46.07 × 10^12 M^−1S^−1 | 460,702 ± 1875 M^−1 | 26% | Site I

— PMC8874853 (Molecules, 2022)
